Results taken from patent publication US8299061B2, “Inhibitors of diacylglycerol acyltransferase” (Eli Lilly and Company, priority 2009, dated 2012).
“And” between values parts separate entries of the source, which are not always exact repeats. Equal values may be shown once. Read-outs that look alike come from different tables or passages of the source.

Legend:
[1] = biological target: T1, recombinant human DGAT-1 (Homo sapiens, UniProt O75907); assay: DGAT-1 enzyme assay; format: biochemical; conditions: recombinant human DGAT-1 expressed in sf9 insect cells; geometric mean±standard error
T1 construct: made in house; host or cells: sf9 insect cells (recombinant baculovirus); crude cell homogenate used
T1 sequence (O75907 1-488): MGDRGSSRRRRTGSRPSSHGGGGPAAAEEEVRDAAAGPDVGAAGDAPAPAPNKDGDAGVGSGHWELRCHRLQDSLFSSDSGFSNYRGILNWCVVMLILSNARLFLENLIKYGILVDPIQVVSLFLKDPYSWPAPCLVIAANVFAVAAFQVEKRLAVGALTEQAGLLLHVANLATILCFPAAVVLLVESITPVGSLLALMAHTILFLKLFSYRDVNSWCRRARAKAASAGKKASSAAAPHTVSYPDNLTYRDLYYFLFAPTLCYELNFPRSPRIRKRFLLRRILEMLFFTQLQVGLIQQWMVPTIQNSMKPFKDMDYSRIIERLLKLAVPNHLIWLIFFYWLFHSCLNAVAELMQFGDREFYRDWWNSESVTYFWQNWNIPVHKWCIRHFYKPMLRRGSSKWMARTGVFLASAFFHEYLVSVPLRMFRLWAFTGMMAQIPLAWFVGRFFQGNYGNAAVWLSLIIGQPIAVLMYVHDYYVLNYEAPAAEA
Method: DGAT-1 enzyme assay Inhibitors of DGAT-1 are identified with an in vitro enzymatic assay which uses recombinant human DGAT-1 expressed in sf9 insect cells as an enzyme source. DGAT-1 enzyme is produced by infecting cells with recombinant baculovirus containing a DGAT-1 expression vector. After 48 hr infection cells are harvested by centrifugation, resuspended in cold 20 mM NaCl, and disrupted with a Dounce homogenizer. Fifteen milliliters of 20 mM NaCl are added to a cell pellet for each liter of infected cell suspension. DNA in the homogenate is sheared by pulling the cell extract through a 25 gauge needle. DGAT-1 activity in the baculovirus infected cell homogenate is compared to homogenate from uninfected cells to assess background enzymatic activity associated with sf9 cells.
Assays are performed in 96 well plates using a modification of the assay described by Coleman (Methods in Enzymology 209. pp 98-102 (1992)). Briefly, compounds are tested in a 1:3 serial dilution scheme from 100 μM to 1.7 nM final concentration. The enzyme reaction mixture contains substrates 250 μM 1,2-sn-diacylglycerol (Avanti Polar Lipids), 5 μM ^14C oleoyl CoA, and 45 μM oleoyl CoA in an aqueous buffer containing 150 mM Hepes buffer pH7.4, 0.7% vol/vol Triton® X-100 and Complete™ protease inhibitors. […] One hundred microliters of scintillation cocktail is then added and, after 8 hr, plates are counted. […]

[2] = tested on: Male Sprague-Dawley rats; assay: Oil bolus absorption model (plasma triglyceride after olive oil bolus); format: in vivo, rat; conditions: for ED80: dose reducing increase in plasma triglyceride by 80%
Method: Male Sprague-Dawley rats (280-320 g, n=6 per test group) on regular chow are acclimated to the test vivarium for at least 1 week prior to compound evaluation. Prior to compound testing, rats are fasted for 16 hour. Compounds are administered via oral gavage in a vehicle of 10% ethanol/90% corn oil at a volume of 1 ml/kg. Four hours after compound administration, a 0.5 ml blood sample is collected via the tail vein. Immediately following the 4 hour blood collection, a 3.0 ml bolus of olive oil is administered by oral gavage. A final blood sample is collected from the tail vein 6 hours after compound administration. Plasma is prepared from blood samples by centrifugation and analyzed for both triglyceride content, using a Hitachi 912 clinical chemistry analyzer, and test compound levels. The effective dose that reduces the increase in plasma triglyceride by 50% (ED50) and 80% (ED80) is determined DGAT-1 inhibition is indicative of the ability of the test compound to inhibit the increase in plasma triglyceride that occurs between hours 4 and 6 of the study (between 14 and 16 hours in the modified model) in vehicle treated (control) animals. In a modification of the model, compound is administered 14 hours prior to the first blood sample collection and oil bolus administration. The final blood sample is collected at 16 hours after dosing. In this longer duration version of the model, the 10% ethanol/90% corn oil vehicle is administered, without compound, at 10 hours after compound dosing to be consistent with the shorter duration version of the model. Compounds are tested substantially by the oil bolus absorption rat model method described herein.
For the compound N-[1-[[(4R)-5,6-dihydro-4H-imidazo[1,2-a][1]benzazepin-4-yl]carbamoyl]cyclopropyl]-4-ethoxy-benzamide (Examples 1, 3, 57), the three experiments used doses of 1, 3, 10 and 30 mg/kg. For the compound 4-Chloro-N-[1-[[(4R)-5,6-dihydro-4H-imidazo[1,2-a][1]benzazepin-4-yl]carbamoyl]cyclopropyl]benzamide (Examples 2, 21, 58), experiment 1 used doses of 0.3, 1, 3, 10 and 30 mg/kg, and for experiments 2 and 3, the doses used are 0.1, 0.3, 1, 3 and 10 mg/kg.
The data are analyzed using meta-analysis. The overall ED50 (ED80) is estimated as the weighted average of ED50 (ED80) from individual studies, with the weights being the inverse of variance of ED50 (ED80) estimates. The homogeneity Q-test is performed. If the test is significant at 0.10 level, a mixed-effect model is used to include both inter-study and intra-study variability. The weights are adjusted to the inverse of the sum of inter-study variance and the intra-study variance of ED50 (ED80) from individual studies. The inter-study variance is estimated by the Paule-Mandel estimator. (References: Sutton, A. J., Jones, D. R., Abrams, K. R., Sheldon, T. A., and Song, F., Methods for Meta-analysis in Medical Research London, John Wiley, ISBN 0-471-49066-0 (2000). Dersimonian R., and Kacker, R., Random-effects model for meta-analysis of clinical trials: An update, Contemporary Clinical Trials 28 p 105-114 (2007).

[3] = tested on: mouse 3T3-L1 adipocytes; assay: Adipocyte triglyceride synthesis assay; format: cell-based; conditions: inhibition of triglyceride synthesis, 14C acetate, 4 hours, geometric mean±standard error
Method: Adipocyte Triglyceride Synthesis Assay: This assay measures the ability of compounds to inhibit triglyceride synthesis in intact mouse 3T3-L1 adipocytes. Undifferentiated 3T3-L1 cells are cultured in 96 well plates at a density of 25,000 cells per well using standard tissue culture conditions. After two days in culture, the cells are differentiated to adipocytes by placing them in media supplemented with 0.5 mM 1-methyl-3-isobutylxanthine (IBMX), 10 μg/mL insulin and 1 μM dexamethasone. After five days in culture, cells are grown in media supplemented only with 10 μg/mL insulin. Assays are performed after cells have been in culture 12 days. To begin the assay, culture media is removed from the cells and replaced with 50 μl OptiMEM® media containing 0.375 μCi/well ^14C acetate. Cells are then incubated at 37° C. in 7.5% CO2 for 4 hours. At the end of this incubation, media is removed, cells are washed once with Hank's balanced salts, and 25 μl of 0.7% Triton® X-100 is added to each well and allowed to extract the cells for 5 minutes. At the end of this period, 75 μl of a solution containing 58.8% isopropanol, 14.7% n-heptane, 11.5% water, 12.5% ethanol, and 2.5% 1N sodium hydroxide is added to each well and plates are shaken on an orbital shaker for 2 minutes. 100 μl of heptane is then added and plates are shaken for another 2 minutes. […]

[4] = tested on: C57 B16 mice fed a high fat diet; assay: Diet-induced obese mouse model; format: in vivo; conditions: twice daily oral gavage, meta-analysis; for Vehicle controlled percent Fat Mass Change, Mean: QNMR; for Vehicle controlled percent Food Intake Change, Mean: cumulative food intake
Method: Diet-induced obese mouse model: To measure effects on body weight and food intake, compounds are tested in C57 B16 mice fed a high fat diet (Research Diets D12492). Fourteen week old mice raised on D12492 are acclimated to the test vivarium for 2 weeks on a 12 hour light/dark cycle. Seven days prior to compound testing, animals are dosed by oral gavage either once or twice daily with a suitable vehicle in order to accustom the mice to handling. On day 6 of vehicle dosing, body composition is measured by quantitative nuclear magnetic resonance (QNMR). On day seven of vehicle dosing, animals are randomized by body weight and sorted into test groups (n=8). Compound dosing, twice daily, commences after 7 days of vehicle dosing. Animals are given compound 30 minutes prior to the dark phase of the dark/light cycle and, if desired, again 5.5 hours into the dark phase. Compound dosing continues for 15 to 22 days during which time food intake and body weight are measured daily. On day 14 of the experiment, body composition is measured for a second time by QNMR. On day 15, terminal bleeds are taken from two animals per test group at 0, 2, 4, and 6 hours after the final dose for measurement of test compound levels in plasma.
The data are analyzed using a meta-analysis. For the percent Body Weight gain (loss) and percent Fat Mass gain (loss), the measure of treatment effect in the meta-analysis is the group mean difference between treatment and control group. For the percent Cumulative Food Intake Change from Control (% CFICFC), the measure of treatment effect is % CFICFC itself. The overall treatment effect is estimated as the weighted average of treatment effect from individual studies, with the weights being the inverse of variance of individual study's treatment effect estimates. The homogeneity Q-test is performed. If the test is significant at 0.10 level, then a mixed-effect model is used to include both inter-study and intra-study variability. The weights are adjusted to the inverse of the sum of inter-study variance and the intra-study variance of treatment effect estimates from individual studies. The inter-study variance is estimated by the Paule-Mandel estimator. (References: Sutton, A. J., Jones, D. R., Abrams, K. R., Sheldon, T. A., and Song, F., Methods for Meta-analysis in Medical Research London, John Wiley, ISBN 0-471-49066-0 (2000). Dersimonian R., and Kacker, R., Random-effects model for meta-analysis of clinical trials: An update, Contemporary Clinical Trials 28 p 105-114 (2007). Compounds are tested substantially by the diet-induced obese mouse model method described herein.
For N-[1-[[(4R)-5,6-dihydro-4H-imidazo[1,2-a][1]benzazepin-4-yl]carbamoyl]cyclopropyl]-4-ethoxy-benzamide (Examples 1, 3, 57), three experiments were performed at doses of 1, 3, 10 and 30 mg/kg (two of the experiments) and 3 and 30 mg/kg (one of the experiments). Because the 3 and 30 mg/kg doses are common to the experiments, these doses are used to compare the results.
For 4-Chloro-N-[1-[[(4R)-5,6-dihydro-4H-imidazo[1,2-a][1]benzazepin-4-yl]carbamoyl]cyclopropyl]benzamide (Examples 2, 21, 58), two experiments were performed at doses of 3, 10, 30 and 60 mg/kg and at 0.3, 1, 3 and 10 mg/kg. For each of the experiments, the doses are given twice per day. Because the 3 and 10 mg/kg doses are common to the experiments, these doses are used to compare the results.

Compound	IC50 [1] [nM]	ED50 ([2]; 16 hour oil bolus study, rat, oral gavage, dose reducing increase in plasma triglyceride by 50%, individual experiments)	ED80 ([2]; 16 hour oil bolus study, rat, oral gavage, individual experiments)	ED80 Mean (meta-analysis) ([2]; 16 hour oil bolus study, weighted average of three experiments) [mg/kg]	ED50 ([2]; Rattus norvegicus, 16 h, 16 hour oil bolus study, weighted average of three experiments, read-out: ED50 Mean (meta-analysis)) [mg/kg]	EC50 [3] [nM]	Vehicle controlled percent Fat Mass Change, Mean ([4]; 3 mg/kg − control) [%]	Vehicle controlled percent Food Intake Change, Mean ([4]; 3 mg/kg − control) [%]	Vehicle controlled percent Body Weight Change, Mean ([4]; 3 mg/kg − control) [%]	Vehicle controlled percent Fat Mass Change, Mean ([4]; 30 mg/kg − control) [%]	Vehicle controlled percent Food Intake Change, Mean ([4]; 30 mg/kg − control) [%]	Vehicle controlled percent Body Weight Change, Mean ([4]; 30 mg/kg − control) [%]	ED50 ([2]; 6 hour oil bolus study, rat, oral gavage, dose reducing increase in plasma triglyceride by 50%, individual experiments)	ED80 ([2]; 6 hour oil bolus study, rat, oral gavage, individual experiments)	ED80 Mean (meta-analysis) ([2]; 6 hour oil bolus study, weighted average of experiments) [mg/kg]	ED50 ([2]; Rattus norvegicus, 6 h, 6 hour oil bolus study, weighted average of experiments, read-out: ED50 Mean (meta-analysis)) [mg/kg]	Vehicle controlled percent Fat Mass Change, Mean ([4]; 10 mg/kg − control) [%]	Vehicle controlled percent Food Intake Change, Mean ([4]; 10 mg/kg − control) [%]	Vehicle controlled percent Body Weight Change, Mean ([4]; 10 mg/kg − control) [%]
CCOc1ccc(C(=O)NC2(C(=O)N[C@@H]3CCc4ccccc4-n4ccnc43)CC2)cc1 [Example 1, N-[1-[[(4R)-5,6-dihydro-4H-imidazo[1,2-a][1]benzazepin-4-yl]carbamoyl]cyclopropyl]-4-ethoxy-benzamide]	134 ± 8	1.71 mg/kg and 12.37 mg/kg and 2.92 mg/kg	5.52 mg/kg and 19.61 mg/kg and 7.64 mg/kg	7.34	5.3	175	−6.69	−10.11	−4.74	−8.24	−11.35	−5.31	–	–	–	–	–	–	–
O=C(NC1(C(=O)N[C@@H]2CCc3ccccc3-n3ccnc32)CC1)c1ccc(Cl)cc1 [Example 2, 4-Chloro-N-[1-[[(4R)-5,6-dihydro-4H-imidazo[1,2-a][1]benzazepin-4-yl]carbamoyl]cyclopropyl]benzamide]	89 ± 0.98	–	–	–	–	213	−9.53	−11.31	−4.65	–	–	–	0.26 mg/kg and 0.73 mg/kg and 0.57 mg/kg	0.45 mg/kg and 2.22 mg/kg	0.54	0.32	−8.41	−8.43	−4.54
